In PMC5218480 (PLoS ONE, 2017):

System: MV-4-11 cells
Assay: Gene expression microarray analysis (Affymetrix PrimeView) and GSEA
Assay type: cell-based, human
Parameters: RFU PODN (11730768_x_at) / Fold change /veh PODN (11730768_x_at) / RFU LINC00158 (11744669_a_at) / Fold change /veh LINC00158 (11744669_a_at) / RFU DUSP10 (11751237_a_at) / Fold change /veh DUSP10 (11751237_a_at) / RFU ID3 (11757404_x_at) / Fold change /veh ID3 (11757404_x_at) / RFU PLEKHG5 (11737974_s_at) / Fold change /veh PLEKHG5 (11737974_s_at) / RFU LRRC4B (11730491_at) / Fold change /veh LRRC4B (11730491_at) / RFU GIMAP4 (11747438_a_at) / Fold change /veh GIMAP4 (11747438_a_at) / RFU KRT8 (11758183_x_at) / Fold change /veh KRT8 (11758183_x_at) / RFU CNN1 (11734310_a_at) / Fold change /veh CNN1 (11734310_a_at) / RFU VPS37D (11726825_at) / Fold change /veh VPS37D (11726825_at) / RFU C10orf10 (11716522_x_at) / Fold change /veh C10orf10 (11716522_x_at) / RFU KIR2DL2 /// KIR2DL4 /// KIR2DL5A /// KIR2DL5B /// KIR2DS1 /// KIR2DS2 /// KIR2DS3 /// KIR2DS4 /// KIR3DL3 /// KIR3DL3 /// KIR3DS1 (11738374_at) / Fold change /veh KIR2DL2 /// KIR2DL4 /// KIR2DL5A /// KIR2DL5B /// KIR2DS1 /// KIR2DS2 /// KIR2DS3 /// KIR2DS4 /// KIR3DL3 /// KIR3DL3 /// KIR3DS1 (11738374_at) / RFU C1QL1 (11718748_at) / Fold change /veh C1QL1 (11718748_at) / RFU TMPRSS4 (11747572_a_at) / Fold change /veh TMPRSS4 (11747572_a_at) / RFU HAMP (11756126_x_at) / Fold change /veh HAMP (11756126_x_at) / RFU RNFT2 (11725882_a_at) / Fold change /veh RNFT2 (11725882_a_at) / RFU NR4A2 (11747474_a_at) / Fold change /veh NR4A2 (11747474_a_at) / RFU ABCC12 (11746883_a_at) / Fold change /veh ABCC12 (11746883_a_at) / RFU TMEM136 (11760407_x_at) / Fold change /veh TMEM136 (11760407_x_at) / RFU CLDN22 /// WWC2 (11732394_at) / Fold change /veh CLDN22 /// WWC2 (11732394_at) / RFU HLA-DPB1 (11760878_x_at) / Fold change /veh HLA-DPB1 (11760878_x_at) / RFU SPINT1 (11716480_a_at) / Fold change /veh SPINT1 (11716480_a_at) / RFU GAP43 (11754022_s_at) / Fold change /veh GAP43 (11754022_s_at) / RFU A4GNT (11735810_at) / Fold change /veh A4GNT (11735810_at) / RFU PRB3 (11715151_x_at) / Fold change /veh PRB3 (11715151_x_at) / RFU TUBB4B (11761932_at) / Fold change /veh TUBB4B (11761932_at) / RFU CAPN14 (11732068_a_at) / Fold change /veh CAPN14 (11732068_a_at) / RFU TMCC2 (11721928_a_at) / Fold change /veh TMCC2 (11721928_a_at) / RFU IRGQ (11745062_a_at) / Fold change /veh IRGQ (11745062_a_at) / RFU FAM174B (11720279_a_at) / Fold change /veh FAM174B (11720279_a_at) / RFU TMPRSS4 (11748680_a_at) / Fold change /veh TMPRSS4 (11748680_a_at) / RFU FAM212B (11763350_a_at) / Fold change /veh FAM212B (11763350_a_at) / RFU PLEKHG5 (11743358_a_at) / Fold change /veh PLEKHG5 (11743358_a_at) / RFU ZSCAN30 (11745921_a_at) / Fold change /veh ZSCAN30 (11745921_a_at) / RFU CMKLR1 (11741424_a_at) / Fold change /veh CMKLR1 (11741424_a_at) / RFU LOC101060620 /// MAPK8IP1 (11723275_at) / Fold change /veh LOC101060620 /// MAPK8IP1 (11723275_at) / RFU SPTSSB (11747773_x_at) / Fold change /veh SPTSSB (11747773_x_at) / RFU PRSS12 (11739890_at) / Fold change /veh PRSS12 (11739890_at) / RFU BIN1 (11741810_x_at) / Fold change /veh BIN1 (11741810_x_at) / RFU WNT11 (11732464_a_at) / Fold change /veh WNT11 (11732464_a_at) / RFU C10orf10 (11716521_a_at) / Fold change /veh C10orf10 (11716521_a_at) / RFU C5orf56 (11738089_at) / Fold change /veh C5orf56 (11738089_at) / RFU CYB561 (11721691_x_at) / Fold change /veh CYB561 (11721691_x_at) / RFU ANKRD19P (11752326_a_at) / Fold change /veh ANKRD19P (11752326_a_at) / RFU OR2T12 /// OR2T33 /// OR2T8 (11738714_s_at) / Fold change /veh OR2T12 /// OR2T33 /// OR2T8 (11738714_s_at) / RFU VCAN (11748164_a_at) / Fold change /veh VCAN (11748164_a_at) / RFU JSRP1 (11732532_at) / Fold change /veh JSRP1 (11732532_at) / RFU KRTAP10-11 (11738290_x_at) / Fold change /veh KRTAP10-11 (11738290_x_at) / RFU MYO3A (11730013_a_at) / Fold change /veh MYO3A (11730013_a_at) / RFU EBF3 (11725865_a_at) / Fold change /veh EBF3 (11725865_a_at) / RFU CAMK2N1 (11719241_x_at) / Fold change /veh CAMK2N1 (11719241_x_at) / RFU C5orf56 (11738088_a_at) / Fold change /veh C5orf56 (11738088_a_at) / RFU OLFML3 (11715873_a_at) / Fold change /veh OLFML3 (11715873_a_at) / RFU LOC100653217 /// NTM (11731650_a_at) / Fold change /veh LOC100653217 /// NTM (11731650_a_at) / RFU MAPK11 (11762145_a_at) / Fold change /veh MAPK11 (11762145_a_at) / RFU FIZ1 (11724087_x_at) / Fold change /veh FIZ1 (11724087_x_at) / RFU OASL (11726364_x_at) / Fold change /veh OASL (11726364_x_at) / RFU SOX15 (11748057_x_at) / Fold change /veh SOX15 (11748057_x_at) / RFU CD79A (11719716_a_at) / Fold change /veh CD79A (11719716_a_at) / RFU HIST1H1D (11736915_at) / Fold change /veh HIST1H1D (11736915_at) / RFU CASKIN2 (11723855_a_at) / Fold change /veh CASKIN2 (11723855_a_at) / RFU LOC730098 (11760151_x_at) / Fold change /veh LOC730098 (11760151_x_at) / RFU OR4N2 (11742367_at) / Fold change /veh OR4N2 (11742367_at) / RFU PRRT2 (11749266_a_at) / Fold change /veh PRRT2 (11749266_a_at) / RFU SNX32 (11753110_a_at) / Fold change /veh SNX32 (11753110_a_at) / RFU CDHR5 (11726645_a_at) / Fold change /veh CDHR5 (11726645_a_at) / RFU RCAN1 (11760418_a_at) / Fold change /veh RCAN1 (11760418_a_at) / RFU FAM167A (11723789_a_at) / Fold change /veh FAM167A (11723789_a_at) / RFU FAM26E (11764081_at) / Fold change /veh FAM26E (11764081_at) / RFU ISYNA1 (11749810_s_at) / Fold change /veh ISYNA1 (11749810_s_at) / RFU ACY1 (11761880_at) / Fold change /veh ACY1 (11761880_at) / RFU 11764098_at / Fold change /veh 11764098_at / RFU SAMD14 (11745864_x_at) / Fold change /veh SAMD14 (11745864_x_at) / RFU NPB (11741838_a_at) / Fold change /veh NPB (11741838_a_at) / RFU TMPRSS6 (11731388_a_at) / Fold change /veh TMPRSS6 (11731388_a_at) / RFU KRTAP10-2 (11738614_at) / Fold change /veh KRTAP10-2 (11738614_at) / RFU ARHGAP8 /// PRR5-ARHGAP8 (11727945_x_at) / Fold change /veh ARHGAP8 /// PRR5-ARHGAP8 (11727945_x_at) / RFU KRTAP5-7 /// NADSYN1 (11734609_at) / Fold change /veh KRTAP5-7 /// NADSYN1 (11734609_at) / RFU RASL12 (11751679_a_at) / Fold change /veh RASL12 (11751679_a_at) / RFU CDKN2B (11736163_a_at) / Fold change /veh CDKN2B (11736163_a_at) / RFU PRF1 (11729649_at) / Fold change /veh PRF1 (11729649_at) / RFU, ZNF638 /// ZNF638-IT1 / Fold change vs veh, ZNF638 /// ZNF638-IT1 / RFU, PANK3 / Fold change vs veh, PANK3 / RFU, SH3YL1 / Fold change vs veh, SH3YL1 / RFU, ZEB2 / Fold change vs veh, ZEB2 / RFU, NRIP1 / Fold change vs veh, NRIP1 / RFU, PTTG1IP / Fold change vs veh, PTTG1IP / RFU, CAPN2 / Fold change vs veh, CAPN2 / RFU, MED14 / Fold change vs veh, MED14 / RFU, SNORA58 / Fold change vs veh, SNORA58 / RFU, C1orf63 / Fold change vs veh, C1orf63 / RFU, LRRFIP1 / Fold change vs veh, LRRFIP1 / RFU, NDUFAF7 / Fold change vs veh, NDUFAF7 / RFU, SLC12A2 / Fold change vs veh, SLC12A2 / RFU, IBTK / Fold change vs veh, IBTK / RFU, ESF1 / Fold change vs veh, ESF1 / Fold change vs veh, TMEM50B / RFU, TAOK1 / Fold change vs veh, TAOK1 / RFU, ACBD3 / Fold change vs veh, ACBD3 / RFU, TMA16 / Fold change vs veh, TMA16 / RFU, RWDD3 / Fold change vs veh, RWDD3 / RFU, BCAT1 / Fold change vs veh, BCAT1 / RFU, EDEM3 / Fold change vs veh, EDEM3 / RFU, TMEM33 / Fold change vs veh, TMEM33 / RFU, WDR75 / Fold change vs veh, WDR75 / RFU, AHCTF1 / Fold change vs veh, AHCTF1 / RFU, TFRC / Fold change vs veh, TFRC / RFU, ZDHHC17 / Fold change vs veh, ZDHHC17 / RFU, NOM1 / Fold change vs veh, NOM1 / RFU, ARL8B / Fold change vs veh, ARL8B / RFU, ZBTB11 / Fold change vs veh, ZBTB11 / RFU, TAMM41 / Fold change vs veh, TAMM41 / RFU, KIAA1704 /// LOC100996395 / Fold change vs veh, KIAA1704 /// LOC100996395 / RFU, ING1 / Fold change vs veh, ING1 / RFU, TRMT61B / Fold change vs veh, TRMT61B / RFU, FUBP3 / Fold change vs veh, FUBP3 / RFU, TP53 / Fold change vs veh, TP53 / RFU, TNKS2 / Fold change vs veh, TNKS2 / RFU, ZFP14 / Fold change vs veh, ZFP14 / RFU, ACTR2 / Fold change vs veh, ACTR2 / RFU, PPP3R1 / Fold change vs veh, PPP3R1 / RFU, PIK3R1 / Fold change vs veh, PIK3R1 / RFU, HNRNPA1 / Fold change vs veh, HNRNPA1 / RFU, RNF170 / Fold change vs veh, RNF170 / RFU, ZNF28 / Fold change vs veh, ZNF28 / RFU, RNGTT / Fold change vs veh, RNGTT / RFU, OGT / Fold change vs veh, OGT / RFU, BRD1 / Fold change vs veh, BRD1 / RFU, MARS / Fold change vs veh, MARS / RFU, ZNF655 / Fold change vs veh, ZNF655 / RFU, FAHD1 / Fold change vs veh, FAHD1 / RFU, BDP1 / Fold change vs veh, BDP1 / RFU, LRRCC1 / Fold change vs veh, LRRCC1 / RFU, ARID1A / Fold change vs veh, ARID1A / RFU, ZNF146 / Fold change vs veh, ZNF146 / RFU, ZNF330 / Fold change vs veh, ZNF330 / RFU, GPN3 / Fold change vs veh, GPN3 / RFU, C9orf123 / Fold change vs veh, C9orf123 / RFU, N4BP2L2 / Fold change vs veh, N4BP2L2 / RFU, ARFIP1 / Fold change vs veh, ARFIP1 / RFU, FAM179B / Fold change vs veh, FAM179B / RFU, BCL10 / Fold change vs veh, BCL10 / RFU, UHRF1BP1L / Fold change vs veh, UHRF1BP1L / RFU, BET1 / Fold change vs veh, BET1 / RFU, CNOT2 / Fold change vs veh, CNOT2 / RFU, ZNF268 / Fold change vs veh, ZNF268 / Fold change vs veh, ZNF507 / RFU, DGCR2 / Fold change vs veh, DGCR2 / RFU, WDSUB1 / Fold change vs veh, WDSUB1 / Fold change vs veh, HSP90B1 /// MIR3652 / RFU, ADSS / Fold change vs veh, ADSS / RFU, GK / Fold change vs veh, GK / RFU, ZNF148 / Fold change vs veh, ZNF148 / RFU, TAF9 / Fold change vs veh, TAF9 / RFU, SLC1A5 / Fold change vs veh, SLC1A5 / RFU, SLMO2 / Fold change vs veh, SLMO2 / RFU, ABCC4 / Fold change vs veh, ABCC4 / RFU, LOC101060439 /// RAP1B / Fold change vs veh, LOC101060439 /// RAP1B / RFU, RFX7 / Fold change vs veh, RFX7 / RFU, GTPBP10 / Fold change vs veh, GTPBP10 / RFU, CNEP1R1 / Fold change vs veh, CNEP1R1 / RFU, BIVM-ERCC5 /// ERCC5 / Fold change vs veh, BIVM-ERCC5 /// ERCC5 / RFU, ILF3 / Fold change vs veh, ILF3 / RFU 11762660_at / Fold change /veh 11762660_at / RFU VCAN (11757783_s_at) / Fold change /veh VCAN (11757783_s_at) / RFU DDX43 (11728927_at) / Fold change /veh DDX43 (11728927_at) / RFU KRT8 (11758188_x_at) / Fold change /veh KRT8 (11758188_x_at) / RFU NKD1 (11759106_at) / Fold change /veh NKD1 (11759106_at) / RFU SRD5A1 (11742802_a_at) / Fold change /veh SRD5A1 (11742802_a_at) / RFU TPSAB1 /// TPSB2 (11721975_s_at) / Fold change /veh TPSAB1 /// TPSB2 (11721975_s_at) / RFU GSTM3 (11746129_a_at) / Fold change /veh GSTM3 (11746129_a_at) / RFU IL23R (11737362_x_at) / Fold change /veh IL23R (11737362_x_at) / RFU TMEM51 (11727254_a_at) / Fold change /veh TMEM51 (11727254_a_at) / RFU PIWIL2 (11732686_x_at) / Fold change /veh PIWIL2 (11732686_x_at) / RFU ORM1 (11744905_x_at) / Fold change /veh ORM1 (11744905_x_at) / RFU CCDC152 (11743942_at) / Fold change /veh CCDC152 (11743942_at) / RFU ECM1 (11717891_a_at) / Fold change /veh ECM1 (11717891_a_at) / RFU IL23R (11748794_a_at) / Fold change /veh IL23R (11748794_a_at) / RFU TNFAIP8L3 (11732012_x_at) / Fold change /veh TNFAIP8L3 (11732012_x_at) / RFU MBOAT4 (11741988_at) / Fold change /veh MBOAT4 (11741988_at) / RFU 11764193_at / Fold change /veh 11764193_at / RFU TMEM53 (11763286_at) / Fold change /veh TMEM53 (11763286_at) / RFU MAGEB2 (11727129_at) / Fold change /veh MAGEB2 (11727129_at) / RFU TMEM200A (11744735_a_at) / Fold change /veh TMEM200A (11744735_a_at) / RFU CCDC152 (11751479_a_at) / Fold change /veh CCDC152 (11751479_a_at) / RFU FAM211A (11726209_a_at) / Fold change /veh FAM211A (11726209_a_at) / RFU RGS16 (11746705_a_at) / Fold change /veh RGS16 (11746705_a_at) / RFU VCAN (11755009_s_at) / Fold change /veh VCAN (11755009_s_at) / RFU RHOB (11743442_s_at) / Fold change /veh RHOB (11743442_s_at) / RFU RGS16 (11720943_a_at) / Fold change /veh RGS16 (11720943_a_at) / RFU RGS16 (11720944_at) / Fold change /veh RGS16 (11720944_at) / RFU, VPS4B / Fold change vs veh, VPS4B / RFU, CREB1 / Fold change vs veh, CREB1 / RFU, DNAJC13 / Fold change vs veh, DNAJC13 / RFU, GNAQ / Fold change vs veh, GNAQ / RFU, CDK5R1 / Fold change vs veh, CDK5R1 / RFU, ZRANB3 / Fold change vs veh, ZRANB3 / RFU, CUL4A / Fold change vs veh, CUL4A / RFU, CCNY / Fold change vs veh, CCNY / RFU, UFL1 / Fold change vs veh, UFL1 / RFU, COG3 / Fold change vs veh, COG3 / RFU, DIAPH2 / Fold change vs veh, DIAPH2 / RFU, SKA2 / Fold change vs veh, SKA2 / RFU, AFF3 / Fold change vs veh, AFF3 / RFU, LMF1 / Fold change vs veh, LMF1 / RFU, IPO11 / Fold change vs veh, IPO11 / RFU, DFFB / Fold change vs veh, DFFB / RFU, FOXP1 / Fold change vs veh, FOXP1 / RFU, CARD8 / Fold change vs veh, CARD8 / RFU, STRN3 / Fold change vs veh, STRN3 / RFU, ADK / Fold change vs veh, ADK / RFU, RASSF2 / Fold change vs veh, RASSF2 / RFU, WIPF1 / Fold change vs veh, WIPF1 / RFU, LARP1B / Fold change vs veh, LARP1B / RFU, RASA1 / Fold change vs veh, RASA1 / RFU, RB1 / Fold change vs veh, RB1 / RFU, PPFIA1 / Fold change vs veh, PPFIA1 / RFU, MAT2A / Fold change vs veh, MAT2A / RFU, CCT5 / Fold change vs veh, CCT5 / RFU, WDR92 / Fold change vs veh, WDR92 / RFU, CUX1 / Fold change vs veh, CUX1 / RFU, TTC7A / Fold change vs veh, TTC7A / RFU, TMEM135 / Fold change vs veh, TMEM135 / RFU, DEPTOR / Fold change vs veh, DEPTOR / RFU, CPM / Fold change vs veh, CPM / RFU, DNAJB6 / Fold change vs veh, DNAJB6 / RFU, CACNA2D3 / Fold change vs veh, CACNA2D3 / RFU, DTX4 / Fold change vs veh, DTX4 / RFU, TFCP2 / Fold change vs veh, TFCP2 / RFU, GMCL1 /// GMCL1P1 / Fold change vs veh, GMCL1 /// GMCL1P1 / RFU, AEBP2 / Fold change vs veh, AEBP2 / RFU, SNHG1 /// SNORD22 /// SNORD25 /// SNORD26 /// SNORD27 /// SNORD28 /// SNORD29 /// SNORD31 / Fold change vs veh, SNHG1 /// SNORD22 /// SNORD25 /// SNORD26 /// SNORD27 /// SNORD28 /// SNORD29 /// SNORD31 / Fold change (Aza/veh), C12orf56 (ProbeSet 11735607_a_at) / Fold change (ACY-1035/veh), C12orf56 (ProbeSet 11735607_a_at) / Fold change (Aza/veh), FGFR1OP (ProbeSet 11751329_s_at) / Fold change (ACY-1035/veh), FGFR1OP (ProbeSet 11751329_s_at) / Fold change (Aza/veh), VPS36 (ProbeSet 11739960_a_at) / Fold change (ACY-1035/veh), VPS36 (ProbeSet 11739960_a_at) / RFU SYPL1 (11715823_x_at) / Fold change /veh SYPL1 (11715823_x_at) / RFU IGFBP7 (11715501_s_at) / Fold change /veh IGFBP7 (11715501_s_at) / RFU REEP3 (11722064_at) / Fold change /veh REEP3 (11722064_at) / RFU IGLL1 (11728026_x_at) / Fold change /veh IGLL1 (11728026_x_at): dose or concentration left out as unconfirmed
Settings: ProbeSet 11743882_a_at; LIST D

Compound: Nc1ncn([C@@H]2O[C@H](CO)[C@@H](O)[C@H]2O)c(=O)n1 [azacitidine]
- RFU, STRN3: 92.89 RFU
